Measured values reported in patent US6365621B1, “Remedies or preventives for intractable epilepsy” (Pharmaceutical Co., Ltd., priority 1998, dated 2002).
“And” between values parts separate entries of the source, which are not always exact repeats. Equal entries are not always repeated. Where two headings read alike, the source gives them in different places.

Key:
Type in all cases: in vivo, rat
[1] = test system: kainate-induced cortical focal seizures; assay: Local cerebral glucose metabolism during kainate-induced cortical focal seizures; set-up: key to Change in local cerebral glucose metabolism rate: →: no change; →↓: decreased in a low degree; ↓: decreased in a moderate degree; ↓↓: decreased in a high degree; details: for Change in local cerebral glucose metabolism rate: 100 mg/kg i.v.
Procedure: [Method] A cannula was set in the left sensorimotor area of rats, and kinic acid was injected so as to induce seizures through the same manner as described in the experiment of I-1. Subsequently, a nefiracetam solution (100 mg/kg) was intravenously injected into each rat. After 60 minutes, [^14C] deoxyglucose was intravenously injected, and autoradiograms were produced through the same procedure as described in the experiment of I-2. A glucose utilization rate of each intracerabral structure was compared with that of the control group.

[2] = test system: kainate-induced amygdala seizures; on Spikes from the amygdala after 24 h: key: (+): effective; (−): ineffective; on Spikes from the amygdala after 48 h: key: (+): effective; (−): ineffective; on Spikes from the amygdala after 72 h: key: (+): effective; (−): ineffective; on Spikes from the amygdala just after intravenous injection: key: (+): effective; (−): ineffective
Procedure: [Method for measuring an electrophysiological effect] The following operation was performed by use of 19 Wistar male rats (Japan SLC Co.) each having a weight of 250-350 g. Each rat was anesthetized by pentobarbital and fixed in a stereotaxic apparatus. […] Subsequently, a bipolar depth electrode having a diameter of 0.2 mm were inserted into bilateral amygdala (A, +5.0; L, +−5.0; D, −3.0) and hippocampus (A, +3.0; L, +−3.2; D, +1.5). Screw electrodes were set at the left sensorimotor area (A, +1.0 (from bregam); L, +−2.5; D, 0.5 (from dura)), frontal sinus, and occipital median. The electrodes were connected to sockets, and the cannula, the electrodes, and the sockets were fixed on the cranium by use of dental cement. Seven days after operation, 1 μL of a solution of kainic acid dissolved in phosphoric acid buffer (1 mg/ml) was injected through the cannula (rate: […]) (n=12), so as to induce limbic system seizures. The electrodes were connected to an electroencephalograph, and the behavior of the rat in a cage was observed. An electroencephalogram was recorded by use of the electrode at the frontal sinus serving as an indifferent electrode and the electrode at the occipital median serving as ground. The behavior and electroencephalogram were simultaneously recorded by use of a video electroencephalogram recorder based on an electroencephalograph (SYNAFIT 1000; NEC San-ei Instruments, LTD.).
One to two hours after the injection of kainic acid, when a limbic system seizure was in status epilepticus, nefiracetam dissolved in saline (10 mg/mL) was slowly injected into a caudal vein in an amount selected from 10, 50, 100, and 200 mg/kg (n=12). The same amount of saline was injected into a vein of rats of the control group (n=7). Subsequently, behavior and electroencephalograms of the rat were continuously recorded for at least eight hours, followed by two-hour recording after 24 hours, 48 hours, and 72 hours. Changes in clinical seizure and electroencephalogram observations just after the injection of the nefiracetam solution or saline, and occurrence of seizures and electroencephalogram observations after 24, 48, and 72 hours were measured, and the results were evaluated on the basis of the comparison.

[3] = test system: amygdala kindling development in rats; assay: Development/establishment of amygdala kindling under daily dosing
Procedure: The present inventors have studied the effects of nefiracetam on an development process of the amygdaloid kindled seizures and on establishment of kindling through a method described below, and have determined the efficacy of nefiracetam. The evolution process of kindling is tested by use of rats, in which electrodes are placed in the amygdala and kindling stimulation (50 Hz sine wave, duration of 1 second, once per day) is applied at specific intervals for restoration. On the first day, an afterdischarge-provocation threshold is determined without administration of a pharmaceutical. From the second day, kindling stimulation having intensity of the afterdischarge-provocative threshold is applied to rats administered with a specimen at a variety of administration doses, to thereby investigate an effect of the specimen on the evolution process of kindling.
In this test, the following parameters were evaluated: seizure stage in the process of development of amygdala kindling and afterdischarge duration at the stimulated amygdala.
[Method] Male Wistar rats (5 to 6 weeks old, weight: 200-250 g, Tokyo Jikken Dobutsu) were used. For each rat, in a manner similar to that in Example 1, there were performed anesthetization, setting of an electrode on the amygdala, and fixation of the electrode at the cranial bone. After a recovery period of at least two weeks, kindling stimulation was initiated.
Kindling stimulation was performed for one second per day with a sine wave of 50 Hz. On the first day, the afterdischarge threshold was determined, and from the second day, kindling stimulation was performed at the intensity of the threshold. On the first day, nefiracetam was not administered, in order to determine the threshold. For twenty days from the second day, a dose of nefiracetam (45, 90, or 180 mg/kg) was administered orally, and then kindling stimulation was performed 90 minutes after administration. After nefiracetam was administered for twenty days, kindling stimulation was performed without administration for an additional seven days.

[4] = 10 mg/kg i.v., EEG, individual rat
[5] = 50 mg/kg i.v., EEG, individual rat
[6] = 100 mg/kg i.v., EEG, individual rats
[7] = 200 mg/kg i.v., EEG, individual rats
[8] = 200 mg/kg i.v., individual rats
[9] = Test 1, 90 mg/kg p.o. daily for twenty days
[10] = Test 2, 45 mg/kg p.o. daily for twenty days
[11] = Test 2, 180 mg/kg p.o. daily for twenty days

Structure (SMILES): Cc1cccc(C)c1NC(=O)CN1CCCC1=O [nefiracetam, N-(2,6-dimethylphenyl)-2-(2-oxo-1-pyrrolidinyl)acetamide]
- Hypermetabolism in non-focal sensorimotor area, caudatum-putamen, thalamus and hippocampus in both sides ([1]; 100 mg/kg i.v. during seizures): hypermetabolism is suppressed remarkably
- Change in local cerebral glucose metabolism rate ([1]; Amygdala, focal side): →↓
- Change in local cerebral glucose metabolism rate ([1]; Amygdala, non-focal side): →↓
- Change in local cerebral glucose metabolism rate ([1]; Brain stem reticular formation, focal side): →↓
- Change in local cerebral glucose metabolism rate ([1]; Brain stem reticular formation, non-focal side): →↓
- Change in local cerebral glucose metabolism rate ([1]; Candatum-putamen, focal side): ↓
- Change in local cerebral glucose metabolism rate ([1]; Candatum-putamen, non-focal side): ↓↓
- Change in local cerebral glucose metabolism rate ([1]; Cerebellar cortex, focal side): →
- Change in local cerebral glucose metabolism rate ([1]; Cerebellar cortex, non-focal side): →
- Change in local cerebral glucose metabolism rate ([1]; Corpus callosum, focal side): →
- Change in local cerebral glucose metabolism rate ([1]; Corpus callosum, non-focal side): →
- Change in local cerebral glucose metabolism rate ([1]; Frontal lobe cortex, focal side): →↓
- Change in local cerebral glucose metabolism rate ([1]; Frontal lobe cortex, non-focal side): ↓
- Change in local cerebral glucose metabolism rate ([1]; Hypothalamaus, focal side): ↓
- Change in local cerebral glucose metabolism rate ([1]; Hypothalamaus, non-focal side): ↓
- Change in local cerebral glucose metabolism rate ([1]; Occipital lobe cortex, focal side): →↓
- Change in local cerebral glucose metabolism rate ([1]; Occipital lobe cortex, non-focal side): ↓
- Change in local cerebral glucose metabolism rate ([1]; Parietal lobe cortex, focal side): ↓
- Change in local cerebral glucose metabolism rate ([1]; Parietal lobe cortex, non-focal side): ↓↓
- Change in local cerebral glucose metabolism rate ([1]; Sensorimotor area cortex, focal side): →↓
- Change in local cerebral glucose metabolism rate ([1]; Sensorimotor area cortex, non-focal side): ↓
- Change in local cerebral glucose metabolism rate ([1]; Septal area, focal side): →↓
- Change in local cerebral glucose metabolism rate ([1]; Septal area, non-focal side): →↓
- Change in local cerebral glucose metabolism rate ([1]; Substantia nigra, focal side): →↓
- Change in local cerebral glucose metabolism rate ([1]; Substantia nigra, non-focal side): →↓
- Change in local cerebral glucose metabolism rate ([1]; Teniporal lobe cortex, focal side): →↓
- Change in local cerebral glucose metabolism rate ([1]; Teniporal lobe cortex, non-focal side): ↓
- Change in local cerebral glucose metabolism rate ([1]; Thalamus, focal side): →↓
- Change in local cerebral glucose metabolism rate ([1]; Thalamus, non-focal side): ↓
- Change in local cerebral glucose metabolism rate ([1]; hippocampus, focal side): ↓↓
- Change in local cerebral glucose metabolism rate ([1]; hippocampus, non-focal side): ↓↓
- Disappearance of seizures intravenous injection ([2]; 10 mg/kg i.v. during status epilepticus, individual rat): −
- Spikes from the amygdala after 24 h [2, 4]: +
- Spikes from the amygdala just after intravenous injection [2, 4]: +
- Sedative action ([2]; 10 mg/kg i.v., individual rat): −
- Disappearance of seizures intravenous injection ([2]; 50 mg/kg i.v. during status epilepticus, individual rat): −
- Spikes from the amygdala after 24 h [2, 5]: +
- Spikes from the amygdala just after intravenous injection [2, 5]: +
- Sedative action ([2]; 50 mg/kg i.v., individual rat): −
- Duration of sedative action after injection ([2]; 100 mg/kg i.v.): 30 to 60 min
- Disappearance of seizures intravenous injection ([2]; 100 mg/kg i.v. during status epilepticus, individual rats): −
- Spikes from the amygdala after 24 h [2, 6]: +
- Spikes from the amygdala just after intravenous injection [2, 6]: +
- Sedative action ([2]; 100 mg/kg i.v., individual rats): +
- Duration of sedation from just after the injection ([2]; 200 mg/kg and 100 mg/kg i.v., approximately): 60 to 90 min
- Rats in which seizures were not suppressed (behavior and electroencephalogram) ([2]; 200 mg/kg i.v.): 3 out of the 8
- Disappearance of seizures intravenous injection ([2]; 200 mg/kg i.v. during status epilepticus, individual rats): + (5×) and − (3×)
- Spikes from the amygdala after 24 h [2, 7]: − (3×) and + (4×)
- Spikes from the amygdala after 48 h [2, 7]: − (3×) and + (3×)
- Spikes from the amygdala after 72 h [2, 7]: − (3×) and + (3×)
- Spikes from the amygdala just after intravenous injection [2, 7]: − (4×) and + (4×)
- Rats in which spikes corresponding to the amygdala disappeared from electroencephalogram ([2]; 200 mg/kg i.v., among the 5 rats whose seizures disappeared): 4 out of the 5
- Disappearance period of seizures after intravenous injection [2, 8]: 5 min and 35 min
- Sedative action [2, 8]: +
- Death after intravenous injection (time) ([2]; 200 mg/kg i.v., rat N5): 25 min
- Rats in which seizures disappeared after injection ([2]; 200 mg/kg i.v., seizures later reappeared): 5 out of 8
- Changes in paroxysmal behavior or electroencephalograms ([2]; 10, 50, or 100 mg/kg i.v. during status epilepticus): no apparent changes
- Day on which stage 5 was reached ([3]; 90 mg/kg, typical rat (control: ninth day)): tenth day
- Day on which seizure stage began to progress ([3]; 90 mg/kg, typical rat (control: third day)): sixth day
- Number of stimulations until the completion of stage 5 versus control rats ([3]; 45, 90 or 180 mg/kg p.o. daily): no difference was observed
- Number of samples showing an increase in afterdischarge threshold/total samples [3, 9]: 3/6
- Number of samples showing stage 5 intermittently/total samples [3, 9]: 4/6
- Number of samples showing an increase in afterdischarge threshold/total samples [3, 10]: 0/4
- Number of samples showing stage 5 intermittently/total samples [3, 10]: 0/4
- Number of samples showing an increase in afterdischarge threshold/total samples [3, 11]: 2/6
- Number of samples showing stage 5 intermittently/total samples [3, 11]: 5/6
- Stimulation intensity at which afterdischarge was shown ([3]; one nefiracetam-administered rat, eleventh day): 150 μA
- Seizure stage ([3]; one nefiracetam-administered rat, eleventh day, 150 μA): 4
